# PubChem BioAssay (NCI)
#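 1) Cells in 96-well plates. 2) Compound, 48 h, 5 concentrations. 3) Linear interpolation between surrounding doses. 4) Unreached endpoint = highest concentration. TGI marks complete inhibition of growth.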
# Assays:
# Experiment in all cases: growth of human tumour cells (NCI), 48 h
# [1] = tested on: 786-0 renal
# [2] = tested on: HOP-62 NSCLC
# [3] = tested on: SW-620 colon
# [4] = tested on: SN12C renal
# [5] = tested on: PC-3 prostate
# [6] = tested on: MDA-MB-435
# [7] = tested on: COLO 205 colon
# [8] = tested on: CCRF-CEM leukemia
# [9] = tested on: TK-10 renal
# [10] = tested on: HS 578T breast
# [11] = tested on: HCC-2998 colon
# [12] = tested on: BT-549 breast
# [13] = tested on: UACC-257 melanoma
# [14] = tested on: ACHN renal
# [15] = tested on: MDA-MB-231 breast
# [16] = tested on: KM12 colon
# [17] = tested on: HL-60(TB) leukemia
# [18] = tested on: CAKI-1 renal
# [19] = tested on: SK-MEL-2 melanoma
# [20] = tested on: HOP-92 NSCLC
# [21] = tested on: HCT-116 colon
# [22] = tested on: A549 NSCLC
# [23] = tested on: SF-268 CNS
# [24] = tested on: K-562 leukemia
# [25] = tested on: RXF 393 renal
# [26] = tested on: DU-145 prostate
# [27] = tested on: OVCAR-8 ovarian
# [28] = tested on: SK-MEL-5 melanoma
# [29] = tested on: NCI-H226 lung
# [30] = tested on: UO-31 renal
# [31] = tested on: T-47D breast
# [32] = tested on: NCI/ADR-RES ovarian
# [33] = tested on: UACC-62 melanoma
# [34] = tested on: SK-MEL-28 melanoma
# [35] = tested on: HT29 colon
# [36] = tested on: IGROV1 ovarian
# [37] = tested on: EKVX NSCLC
# [38] = tested on: MOLT-4 leukemia
# [39] = tested on: SF-539 CNS
# [40] = tested on: SF-295 CNS
# [41] = tested on: LOX IMVI melanoma
# [42] = tested on: SNB-75 CNS
# [43] = tested on: M14 melanoma
# [44] = tested on: OVCAR-5 ovarian
# [45] = tested on: SK-OV-3 ovarian
# [46] = tested on: NCI-H522 lung
# [47] = tested on: SR leukemia
# [48] = tested on: OVCAR-3 ovarian
# [49] = tested on: HCT-15 colon
# [50] = tested on: MCF7 breast
# [51] = tested on: MALME-3M melanoma
# [52] = tested on: NCI-H460 lung
# [53] = tested on: MDA-N
# [54] = tested on: RPMI-8226 leukemia
# [55] = tested on: SNB-19 CNS
# [56] = tested on: U251 CNS
# [57] = tested on: NCI-H23 lung
# [58] = tested on: OVCAR-4 ovarian
# [59] = tested on: A498 renal
compound,measurement,setting,value
CN1C(=O)[C@H](c2c[nH]c3ccccc23)[C@H](c2c[nH]c3ccccc23)C1=O,TGI,[1],> 91.4 µM
same,TGI,[2],> 64.1 µM
same,TGI,[3],> 100 µM
same,TGI,[4],> 100 µM
same,TGI,[5],> 80.4 µM
same,TGI,[6],> 77.6 µM
same,TGI,[7],> 37.9 µM
same,TGI,[8],87 µM
same,TGI,[9],61.2 µM
same,TGI,[10],> 86.3 µM
same,TGI,[11],> 100 µM
same,TGI,[12],55.7 µM
same,TGI,[13],> 63.8 µM
same,TGI,[14],> 66.3 µM
same,TGI,[15],> 31.8 µM
same,TGI,[16],> 100 µM
same,TGI,[17],> 46.9 µM
same,TGI,[18],> 38.8 µM
same,TGI,[19],> 55.2 µM
same,TGI,[20],> 67.3 µM
same,TGI,[21],> 59.1 µM
same,TGI,[22],> 100 µM
same,TGI,[23],> 100 µM
same,TGI,[24],> 69.5 µM
same,TGI,[25],> 90.6 µM
same,TGI,[26],> 100 µM
same,TGI,[27],> 100 µM
same,TGI,[28],> 52.5 µM
same,TGI,[29],97.6 µM
same,TGI,[30],62.4 µM
same,TGI,[31],> 100 µM
same,TGI,[32],> 85.9 µM
same,TGI,[33],> 54.4 µM
same,TGI,[34],> 87.6 µM
same,TGI,[35],> 83.4 µM
same,TGI,[36],> 45.3 µM
same,TGI,[37],> 100 µM
same,TGI,[38],> 77 µM
same,TGI,[39],> 54.3 µM
same,TGI,[40],> 73.7 µM
same,TGI,[41],37.8 µM
same,TGI,[42],> 92.8 µM
same,TGI,[43],> 100 µM
same,TGI,[44],> 100 µM
same,TGI,[45],> 100 µM
same,TGI,[46],> 100 µM
same,TGI,[47],> 74.5 µM
same,TGI,[48],> 56.5 µM
same,TGI,[49],> 59.9 µM
same,TGI,[50],> 100 µM
same,TGI,[51],> 100 µM
same,TGI,[52],> 50.1 µM
same,TGI,[53],> 100 µM
same,TGI,[54],> 66.9 µM
same,TGI,[55],> 100 µM
same,TGI,[56],> 90.1 µM
same,TGI,[57],> 65.1 µM
same,TGI,[58],50.6 µM
N#Cc1c(N)nc(SCc2ccccc2)c(C#N)c1-c1ccc(O)cc1,TGI,[1],30.6 µM
same,TGI,[2],32.6 µM
same,TGI,[3],41.6 µM
same,TGI,[4],33.4 µM
same,TGI,[5],33.6 µM
same,TGI,[6],25.7 µM
same,TGI,[7],37.8 µM
same,TGI,[8],38.6 µM
same,TGI,[9],> 64.7 µM
same,TGI,[10],> 100 µM
same,TGI,[11],> 55.6 µM
same,TGI,[12],24.7 µM
same,TGI,[13],> 52.4 µM
same,TGI,[14],28.9 µM
same,TGI,[15],28.5 µM
same,TGI,[16],25.8 µM
same,TGI,[17],32.8 µM
same,TGI,[18],28.5 µM
same,TGI,[19],35.5 µM
same,TGI,[20],22 µM
same,TGI,[21],25.1 µM
same,TGI,[22],48.7 µM
same,TGI,[23],66.9 µM
same,TGI,[24],37.8 µM
same,TGI,[25],45.1 µM
same,TGI,[26],27.2 µM
same,TGI,[27],30.7 µM
same,TGI,[28],27.1 µM
same,TGI,[29],48.2 µM
same,TGI,[30],3.9 µM
same,TGI,[31],23.4 µM
same,TGI,[32],45.7 µM
same,TGI,[33],39.8 µM
same,TGI,[34],33 µM
same,TGI,[35],23.1 µM
same,TGI,[36],29.9 µM
same,TGI,[37],26.3 µM
same,TGI,[38],23.1 µM
same,TGI,[39],57.5 µM
same,TGI,[40],32.3 µM
same,TGI,[41],43 µM
same,TGI,[42],38.9 µM
same,TGI,[43],29.2 µM
same,TGI,[44],32.2 µM
same,TGI,[45],31.4 µM
same,TGI,[46],36.3 µM
same,TGI,[47],34.7 µM
same,TGI,[48],33.4 µM
same,TGI,[49],30.4 µM
same,TGI,[50],30.6 µM
same,TGI,[51],30 µM
same,TGI,[52],> 65.8 µM
same,TGI,[53],27.5 µM
same,TGI,[59],30.6 µM
same,TGI,[54],29.8 µM
same,TGI,[55],41.6 µM
same,TGI,[56],30.5 µM
same,TGI,[57],33.2 µM
same,TGI,[58],30.4 µM
C1=Nc2ccc(cc2)-c2ccc(cc2)N=Cc2ccc(cc2)OCc2cccc(n2)COc2ccc1cc2,TGI,[1],> 100 µM
same,TGI,[2],> 100 µM
same,TGI,[3],> 100 µM
same,TGI,[4],> 100 µM
same,TGI,[5],> 100 µM
same,TGI,[6],> 100 µM
same,TGI,[7],> 100 µM
same,TGI,[8],> 100 µM
same,TGI,[10],73.2 µM
same,TGI,[12],> 100 µM
same,TGI,[13],> 100 µM
same,TGI,[14],> 100 µM
same,TGI,[15],> 100 µM
same,TGI,[16],> 100 µM
same,TGI,[17],> 100 µM
same,TGI,[18],> 100 µM
same,TGI,[19],> 100 µM
same,TGI,[20],> 100 µM
same,TGI,[21],> 100 µM
same,TGI,[22],> 100 µM
same,TGI,[23],62.1 µM
same,TGI,[24],> 100 µM
same,TGI,[25],> 100 µM
same,TGI,[26],> 100 µM
same,TGI,[27],> 100 µM
same,TGI,[28],> 100 µM
same,TGI,[29],> 100 µM
same,TGI,[30],> 100 µM
same,TGI,[31],> 100 µM
same,TGI,[32],> 100 µM
same,TGI,[33],> 100 µM
same,TGI,[34],> 100 µM
same,TGI,[35],> 100 µM
same,TGI,[36],> 100 µM
same,TGI,[37],> 100 µM
same,TGI,[38],> 100 µM
same,TGI,[39],> 100 µM
same,TGI,[40],> 100 µM
same,TGI,[42],> 100 µM
same,TGI,[43],> 100 µM
same,TGI,[44],> 100 µM
same,TGI,[45],> 100 µM
same,TGI,[46],> 100 µM
same,TGI,[47],> 100 µM
same,TGI,[48],> 100 µM
same,TGI,[49],> 100 µM
same,TGI,[50],> 100 µM
same,TGI,[51],> 100 µM
same,TGI,[52],> 100 µM
same,TGI,[53],> 100 µM
same,TGI,[59],> 100 µM
same,TGI,[54],> 100 µM
same,TGI,[55],> 100 µM
same,TGI,[56],> 100 µM
same,TGI,[57],> 100 µM
same,TGI,[58],> 100 µM
